Columns and labels:
[1] = Solubility Protocol; format: physicochemical; settings: aqueous buffer, thermodynamic from solid; pH 7.4, 0.1 M sodium phosphate buffer
Procedure: About 5 mg of a compound was mixed with 500 μL of pH 7.4, 0.1 M sodium phosphate buffer. The mixture was adjusted to the original pH of 7.4 and then mixed overnight or longer via rotary mixing. The sample was checked for pH and then filtered through a 0.45 μm filter. If the pH drifted away, the sample was adjusted to its original pH and mixed for at least 15 minutes before filtration. The filtrate was analyzed using HPLC.

[2] = target: T1, PDE4B (Homo sapiens, UniProt Q07343); assay: PDE/AK Biological Activity Assay (coupled PDE/adenylate kinase bioluminescent assay); format: biochemical; settings: catalytic domain of PDE4B, read-out: PDE4 Enzyme IC50
T1 construct: hex-histidine (His6) (N); made in house
Excerpt: Phosphodiesterases regulate the activity of the second messenger cyclic adenosine monophosphate (cAMP) by hydrolyzing cAMP to adenosine monophosphate (AMP). We developed a coupled PDE/AK bioluminescent high-throughput assay to measure the activity of phosphodiesterases. In the PDE/AK assay, the AMP produced from the hydrolysis of cAMP by phosphodiesterase is converted to adenosine diphosphate (ADP) by the phosphotransferase activity of adenylate kinase (also known as ADK or myokinase). Adenylate kinase will catalyze the conversion of 1 mole of AMP and 1 mole of ATP into 2 moles of ADP. Thus the conversion of AMP to ADP will result in the subsequent loss of ATP. The decrease in ATP concentration can be monitored as light output using luciferase in a reaction that requires ATP to produce light. The PDE/AK assay uses luciferase, which catalyzes the production of light from ATP present in the reaction mix. The amount of emitted light is inversely proportional to the level of AMP present in the reaction. Test compounds are incubated with the phosphodiesterases and phosphodiesterase inhibitors will decrease the rate of cAMP hydrolysis and decrease the subsequent production of AMP. Thus phosphodiesterase inhibitors will decrease the conversion of ATP to ADP and result in the greatest emission of light.
Compounds may be screened for functional potency in in vitro biochemical assays for their ability to inhibit the activity of phosphodiesterase (PDE) enzymes. A coupled PDE/AK assay was utilized to measure the inhibitory activity of compounds on PDE isoforms. The catalytic domain of PDE4B was fused to an amino-terminus hex-histidine affinity tag and purified. PDE4B enzyme was incubated with compounds for 10 minutes. Cyclic AMP substrate, ATP and adenylate kinase were then added to the PDE enzyme mix and incubated for 45 minutes at room temperature. A commercial ATP detection assay, Perkin Elmer's easyLite ATP detection reagent, was then added to measure the relative amount of ATP present in the reaction. After 10 minute incubation, the luminescent signal was quantitated with either the Perkin Elmer Viewlux or Molecular Devices Acquest or Analyst. Roflumilast and Rolipram are the positive controls used in the assay.

T1 sequence (Q07343 330-659 limits assumed, species assumed): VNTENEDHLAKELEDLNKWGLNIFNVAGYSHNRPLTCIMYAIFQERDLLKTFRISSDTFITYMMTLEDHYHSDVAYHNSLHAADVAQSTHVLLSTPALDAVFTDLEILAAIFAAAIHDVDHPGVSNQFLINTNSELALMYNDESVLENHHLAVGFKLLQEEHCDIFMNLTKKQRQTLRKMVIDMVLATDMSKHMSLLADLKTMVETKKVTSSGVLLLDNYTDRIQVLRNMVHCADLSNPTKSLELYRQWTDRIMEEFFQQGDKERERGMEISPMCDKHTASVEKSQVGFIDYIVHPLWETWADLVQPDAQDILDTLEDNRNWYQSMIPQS

Compound | solubility [1] [µg/mL] | IC50 [2] [µM]
COc1ccc2c(Nc3c(Cl)cncc3Cl)cc(=O)[nH]c2c1OCCCCCCN(C)CCO [Example 30, 4-(3,5-Dichloropyridin-4-ylamino)-8-(6-((2-hydroxyethyl)(methyl)amino)hexyloxy)-7-methoxyquinolin-2(1H)-one] | ≥ 1000 | < 1
COc1ccc2c(Nc3c(Cl)cncc3Cl)cc(=O)[nH]c2c1OCCCCCN1CCOCC1 [Example 49, 4-(3,5-dichloropyridin-4-ylamino)-7-methoxy-8-(5-morpholinopentyloxy)quinolin-2(1H)-one] | ≥ 1000 | < 1
COc1ccc2c(Nc3c(Cl)cncc3Cl)cc(=O)[nH]c2c1OCCCCCCNCCO [Example 29, 4-(3,5-Dichloropyridin-4-ylamino)-8-(6-(2-hydroxyethylamino)hexyloxy)-7-methoxyquinolin-2(1H)-one] | ≥ 1000 | < 1
COc1ccc2c(Nc3c(C)cncc3C)cc(=O)[nH]c2c1OCCCCCCCCC(=O)O [Example 76, 9-(4-(3,5-dimethylpyridin-4-ylamino)-7-methoxy-2-oxo-1,2-dihydroquinolin-8-yloxy)nonanoic acid] | < 1000 | < 1
COc1ccc2c(Nc3c(Cl)cncc3Cl)cc(=O)[nH]c2c1OCCCCCCN1CCCN(C)CC1 [Example 26, 4-(3,5-Dichloropyridin-4-ylamino)-7-methoxy-8-(6-(4-methyl-1,4-diazepan-1-yl)hexyloxy)quinolin-2(1H)-one] | ≥ 1000 | < 1
COc1ccc2c(Nc3c(Cl)cncc3Cl)cc(=O)[nH]c2c1OCC(N)=O [Example 50, 2-(4-(3,5-dichloropyridin-4-ylamino)-7-methoxy-2-oxo-1,2-dihydroquinolin-8-yloxy)acetamide] | ≥ 1000 | < 1
COc1ccc2c(Nc3c(Cl)cncc3Cl)cc(=O)[nH]c2c1OCCCCCO [Example 42, 4-(3,5-dichloropyridin-4-ylamino)-8-(5-hydroxypentyloxy)-7-methoxyquinolin-2(1H)-one] | ≥ 1000 | < 1
COc1ccc2c(Nc3c(Cl)cncc3Cl)cc(=O)[nH]c2c1OCCCC(=O)O [Example 51, 4-(4-(3,5-dichloropyridin-4-ylamino)-7-methoxy-2-oxo-1,2-dihydroquinolin-8-yloxy)butanoic acid] | ≥ 1000 | < 1
COc1ccc2c(Nc3c(C)cncc3C)cc(=O)[nH]c2c1OCCCCCCn1ccnc1 [Example 80, 8-(6-(1H-imidazol-1-yl)hexyloxy)-4-(3,5-dimethylpyridin-4-ylamino)-7-methoxyquinolin-2(1H)-one] | ≥ 1000 | < 1
COc1ccc2c(Nc3c(Cl)cncc3Cl)cc(=O)[nH]c2c1OCCCn1ccnc1 [Example 62, 8-(3-(1H-imidazol-1-yl)propoxy)-4-(3,5-dichloropyridin-4-ylamino)-7-methoxyquinolin-2(1H)-one] | ≥ 1000 | < 1
COc1ccc2c(Nc3c(C)cncc3C)cc(=O)[nH]c2c1OCCCCC(=O)O [Example 72, 5-(4-(3,5-dimethylpyridin-4-ylamino)-7-methoxy-2-oxo-1,2-dihydroquinolin-8-yloxy)pentanoic acid] | ≥ 1000 | < 1
COc1ccc2c(Nc3c(C)cncc3C)cc(=O)[nH]c2c1OCCCCCCCC(=O)O [Example 75, 8-(4-(3,5-dimethylpyridin-4-ylamino)-7-methoxy-2-oxo-1,2-dihydroquinolin-8-yloxy)octanoic acid] | ≥ 1000 | < 1
COc1ccc2c(Nc3c(Cl)cncc3Cl)cc(=O)[nH]c2c1OCCCCCN1CCN(C)CC1 [Example 47, 4-(3,5-dichloropyridin-4-ylamino)-7-methoxy-8-(5-(4-methylpiperazin-1-yl)pentyloxy)quinolin-2(1H)-one] | ≥ 1000 | < 1
COc1ccc2c(Nc3c(Cl)cncc3Cl)cc(=O)[nH]c2c1OCCCCCCN [Example 28, 8-(6-Aminohexyloxy)-4-(3,5-dichloropyridin-4-ylamino)-7-methoxyquinolin-2(1H)-one] | ≥ 1000 | < 1
COc1ccc2c(Nc3c(C)cncc3C)cc(=O)[nH]c2c1OCCCCCCN1CCCCC1 [Example 36, 4-(3,5-Dimethylpyridin-4-ylamino)-7-methoxy-8-(6-(piperidin-1-yl)hexyloxy)quinolin-2(1H)-one] | ≥ 1000 | < 1
COCCOCCOCCCOc1c(OC)ccc2c(Nc3c(Cl)cncc3Cl)cc(=O)[nH]c12 [Example 70, 4-(3,5-dichloropyridin-4-ylamino)-7-methoxy-8-(3-(2-(2-methoxyethoxy)ethoxy)propoxy)quinolin-2(1H)-one] | ≥ 1000 | < 1
COc1ccc2c(Nc3c(Cl)cncc3Cl)cc(=O)[nH]c2c1OCCCCC(=O)N[C@@H](CO)C(=O)O [Example 64, (S)-2-(5-(4-(3,5-dichloropyridin-4-ylamino)-7-methoxy-2-oxo-1,2-dihydroquinolin-8-yloxy)pentanamido)-3-hydroxypropanoic acid] | ≥ 1000 | < 1
COc1ccc2c(Nc3c(C)cncc3C)cc(=O)[nH]c2c1OCCCCCCC(=O)O [Example 74, 7-(4-(3,5-dimethylpyridin-4-ylamino)-7-methoxy-2-oxo-1,2-dihydroquinolin-8-yloxy)heptanoic acid] | ≥ 1000 | < 1
COc1ccc2c(Nc3c(Cl)cncc3Cl)cc(=O)[nH]c2c1OCCCCCCCCC(=O)O [Example 55, 9-(4-(3,5-dichloropyridin-4-ylamino)-7-methoxy-2-oxo-1,2-dihydroquinolin-8-yloxy)nonanoic acid] | ≥ 1000 | < 1
COc1ccc2c(Nc3c(Cl)cncc3Cl)cc(=O)[nH]c2c1OCCCc1nn[nH]n1 [Example 67, 8-(3-(2H-tetrazol-5-yl)propoxy)-4-(3,5-dichloropyridin-4-ylamino)-7-methoxyquinolin-2(1H)-one] | ≥ 1000 | < 1
COc1ccc2c(Nc3c(C)cncc3C)cc(=O)[nH]c2c1OCCCCCC(=O)O [Example 73, 6-(4-(3,5-dimethylpyridin-4-ylamino)-7-methoxy-2-oxo-1,2-dihydroquinolin-8-yloxy)hexanoic acid] | ≥ 1000 | < 1
COc1ccc2c(Nc3c(Cl)cncc3Cl)cc(=O)[nH]c2c1OCCCCCCNCCCO [Example 32, 4-(3,5-Dichloropyridin-4-ylamino)-8-(6-(3-hydroxypropylamino)hexyloxy)-7-methoxyquinolin-2(1H)-one] | ≥ 1000 | < 1

Reference: patent US8138205B2, “Heteroarylalkoxy-substituted quinolone inhibitors of PDE4” (Kalypsys, Inc., priority 2006, dated 2012)
